Data published in PubChem BioAssay (NCI).
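Briefly, cells in 96-well plates were exposed to five compound concentrations for 48 h, and endpoints were estimated by linear interpolation. At the TGI there is no net growth.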

Experiments:
Assay in all cases: NCI tumour cell line growth inhibition, 48 h
A549 NSCLC = tested on: A549 NSCLC
SF-295 CNS = tested on: SF-295 CNS
HCC-2998 colon = tested on: HCC-2998 colon
T-47D breast = tested on: T-47D breast
SW-620 colon = tested on: SW-620 colon
SNB-75 CNS = tested on: SNB-75 CNS
NCI/ADR-RES ovarian = tested on: NCI/ADR-RES ovarian
MDA-MB-231 breast = tested on: MDA-MB-231 breast
NCI-H226 lung = tested on: NCI-H226 lung
SR leukemia = tested on: SR leukemia
NCI-H460 lung = tested on: NCI-H460 lung
PC-3 prostate = tested on: PC-3 prostate
U251 CNS = tested on: U251 CNS
MOLT-4 leukemia = tested on: MOLT-4 leukemia
HOP-62 NSCLC = tested on: HOP-62 NSCLC
UO-31 renal = tested on: UO-31 renal
LOX IMVI melanoma = tested on: LOX IMVI melanoma
MDA-MB-435 = tested on: MDA-MB-435
ACHN renal = tested on: ACHN renal
M14 melanoma = tested on: M14 melanoma
SK-MEL-28 melanoma = tested on: SK-MEL-28 melanoma
HCT-116 colon = tested on: HCT-116 colon
SK-MEL-5 melanoma = tested on: SK-MEL-5 melanoma
NCI-H23 lung = tested on: NCI-H23 lung
TK-10 renal = tested on: TK-10 renal
SN12C renal = tested on: SN12C renal
CCRF-CEM leukemia = tested on: CCRF-CEM leukemia
NCI-H522 lung = tested on: NCI-H522 lung
K-562 leukemia = tested on: K-562 leukemia
SF-268 CNS = tested on: SF-268 CNS
MDA-N = tested on: MDA-N
MALME-3M melanoma = tested on: MALME-3M melanoma
SK-MEL-2 melanoma = tested on: SK-MEL-2 melanoma
CAKI-1 renal = tested on: CAKI-1 renal
UACC-257 melanoma = tested on: UACC-257 melanoma
SNB-19 CNS = tested on: SNB-19 CNS
RXF 393 renal = tested on: RXF 393 renal
OVCAR-8 ovarian = tested on: OVCAR-8 ovarian
OVCAR-5 ovarian = tested on: OVCAR-5 ovarian
KM12 colon = tested on: KM12 colon
786-0 renal = tested on: 786-0 renal
EKVX NSCLC = tested on: EKVX NSCLC
SK-OV-3 ovarian = tested on: SK-OV-3 ovarian
MCF7 breast = tested on: MCF7 breast
OVCAR-4 ovarian = tested on: OVCAR-4 ovarian
COLO 205 colon = tested on: COLO 205 colon
HCT-15 colon = tested on: HCT-15 colon
UACC-62 melanoma = tested on: UACC-62 melanoma
HOP-92 NSCLC = tested on: HOP-92 NSCLC
SF-539 CNS = tested on: SF-539 CNS
IGROV1 ovarian = tested on: IGROV1 ovarian
HT29 colon = tested on: HT29 colon
OVCAR-3 ovarian = tested on: OVCAR-3 ovarian
A498 renal = tested on: A498 renal
BT-549 breast = tested on: BT-549 breast
DU-145 prostate = tested on: DU-145 prostate
RPMI-8226 leukemia = tested on: RPMI-8226 leukemia

O=C(CCCCCCCCC(=O)NN1C(=O)/C(=C\c2ccc(O)c(O)c2)SC1c1c(O)ccc2ccccc12)NN1C(=O)C(=Cc2ccc(O)c(O)c2)SC1c1c(O)ccc2ccccc12 (configuration not stated)
TGI (A549 NSCLC): > 37.1 µM
TGI (SF-295 CNS): > 100 µM
TGI (HCC-2998 colon): > 100 µM
TGI (T-47D breast): 62.1 µM
TGI (SW-620 colon): > 100 µM
TGI (SNB-75 CNS): > 100 µM
TGI (NCI/ADR-RES ovarian): > 100 µM
TGI (MDA-MB-231 breast): > 87.7 µM
TGI (NCI-H226 lung): > 100 µM
TGI (SR leukemia): > 30.8 µM
TGI (NCI-H460 lung): > 100 µM
TGI (PC-3 prostate): > 100 µM
TGI (U251 CNS): > 54.4 µM
TGI (MOLT-4 leukemia): > 29.8 µM
TGI (HOP-62 NSCLC): > 36.8 µM
TGI (UO-31 renal): 26.8 µM
TGI (LOX IMVI melanoma): 13 µM
TGI (MDA-MB-435): > 100 µM
TGI (ACHN renal): > 100 µM
TGI (M14 melanoma): > 48.5 µM
TGI (SK-MEL-28 melanoma): > 100 µM
TGI (HCT-116 colon): > 100 µM
TGI (SK-MEL-5 melanoma): 19.4 µM
TGI (NCI-H23 lung): 95.1 µM
TGI (TK-10 renal): > 100 µM
TGI (SN12C renal): > 87.4 µM
TGI (CCRF-CEM leukemia): 6.32 µM
TGI (NCI-H522 lung): 30.7 µM
TGI (K-562 leukemia): > 60.8 µM
TGI (SF-268 CNS): > 100 µM
TGI (MDA-N): > 100 µM
TGI (MALME-3M melanoma): 74 µM
TGI (SK-MEL-2 melanoma): > 38.6 µM
TGI (CAKI-1 renal): > 100 µM
TGI (UACC-257 melanoma): > 92.7 µM
TGI (SNB-19 CNS): > 70.3 µM
TGI (RXF 393 renal): > 57.6 µM
TGI (OVCAR-8 ovarian): > 100 µM
TGI (OVCAR-5 ovarian): > 100 µM
TGI (KM12 colon): > 100 µM
TGI (786-0 renal): > 70 µM
TGI (EKVX NSCLC): > 100 µM
TGI (SK-OV-3 ovarian): > 86.8 µM
TGI (MCF7 breast): > 100 µM
TGI (OVCAR-4 ovarian): > 100 µM
TGI (COLO 205 colon): 73.5 µM
TGI (HCT-15 colon): > 100 µM
TGI (UACC-62 melanoma): 45.6 µM
TGI (HOP-92 NSCLC): > 62.7 µM
TGI (SF-539 CNS): 97.2 µM
TGI (IGROV1 ovarian): > 55.5 µM
TGI (HT29 colon): > 100 µM
TGI (OVCAR-3 ovarian): > 32.9 µM
TGI (A498 renal): 75.9 µM
TGI (BT-549 breast): > 100 µM
TGI (DU-145 prostate): > 59.8 µM
TGI (RPMI-8226 leukemia): 21.1 µM
